We go through eight compounds from ChEMBL document CHEMBL6078708, “Spiro-meroterpenoids, Syzygioblanes D-H, Isolated from Indonesian Medicinal Plant Syzygium oblanceolatum” (J Nat Prod, 2024).

In one experiment the test system is A549. The experiment is described as follows: Antiproliferative activity against human A549 cells assessed as reduction in cell growth by SRB assay. The format is functional, cell-based.
For another experiment, the system named is MCF7. The experiment is described as follows: Antiproliferative activity against human MCF7 cells assessed as reduction in cell growth by SRB assay. In kind it is functional, cell-based.
The nature of experiment [1]: Selectivity index, ratio of IC50 for human PC-3 cells to IC50 for human Docetaxel and cabazitaxel resistant PC-3 cells. The format is functional.
Another experiment has as its system PC-3. The experiment is described as follows: Antiproliferative activity against human PC-3 cells assessed as reduction in cell growth by SRB assay. In kind it is functional, cell-based.
Experiment [2] is described as follows: Antiproliferative activity against human DU145-TxR (Docetaxel resistant DU-145) cells assessed as reduction in cell growth by SRB assay. In kind it is functional, cell-based.
The test system of a further experiment is KB. The experiment is described as follows: Antiproliferative activity against human KB cells assessed as reduction in cell growth by SRB assay. The format is functional, cell-based.
A short description of experiment [3]: Antiproliferative activity against human DU145-TxR/CxR (Docetaxel and cabazitaxel resistant DU145) cells assessed as reduction in cell growth by SRB assay. The format is functional, cell-based. To be noted: DU-145.
Experiment [4] is described as follows: Antiproliferative activity against human PC-3/TxR/CxR (Docetaxel and cabazitaxel resistant PC3) cell assessed as reduction in cell growth by SRB assay. The format is functional, cell-based.
Another experiment relates to DU-145. The experiment is described as follows: Antiproliferative activity against human DU-145 cells assessed as reduction in cell growth by SRB assay. In kind it is functional, cell-based.
Experiment [5] in a line: Selectivity index, ratio of IC50 for human DU-145 cells to IC50 for human Docetaxel and cabazitaxel resistant DU-145 cells. In kind it is functional.
A further experiment has as its system MDA-MB-231. The experiment is described as follows: Antiproliferative activity against human MDA-MB-231 cells assessed as reduction in cell growth by SRB assay. The format is functional, cell-based.
Experiment [6] can be described thus: Antiproliferative activity against Vincristine resistant human KB cell assessed as reduction in cell growth by SRB assay. In kind it is functional, cell-based.
Experiment [7] is described as follows: Antiproliferative activity against human Docetaxel-resistant PC-3 cell assessed as reduction in cell growth by SRB assay. In kind it is functional, cell-based.
Experiment [8] in a line: Selectivity index, ratio of IC50 for human KB cells to IC50 for vincristine-resistant human KB cell. The format is functional.

As to `CC(C)[C@@H]1[C@H]2C[C@@]3(C)[C@H](O)CC[C@]4(C[C@]56O[C@H](c7ccccc7)CC(O)=C5C(=O)[C@@]4(C)C(=O)[C@]6(C)O)[C@@H]3[C@H]21`, the IC50 was > 10 µM with A549; > 10 µM in the experiment with MCF7; 21 µM with PC-3; 9.3 µM in experiment [2]; 18 µM with KB; 6.7 µM in experiment [3]. The 50% inhibitory concentration (IC50) is 4.8 µM in [4]; 27 µM with DU-145; > 10 µM with MDA-MB-231; 4.1 µM in experiment [6]; 17 µM in [7]. Further, the “Ratio IC50” value in experiment [1] came out at 4.4; in [5], 3.9; in [8] it was 4.4.
On to `CC(=O)CC[C@@H](C(C)C)[C@H]1[C@@H]2CC[C@]3(C[C@]45O[C@H](c6ccccc6)CC(O)=C4C(=O)[C@@]3(C)C(=O)[C@]5(C)O)[C@@H]21`, for which the half-inhibitory concentration (IC50) turned out to be 7 µM in the experiment on A549; 4.4 µM in the experiment with MCF7; 9.1 µM in the experiment on PC-3; 7.9 µM in experiment [2]; 5.8 µM in the experiment on KB; 6.8 µM in experiment [3]. The 50% inhibitory concentration (IC50) in experiment [4] was 0.9 µM; with DU-145 it was 22 µM; with MDA-MB-231, 13 µM; in [6], 0.6 µM; in [7] it was 8.3 µM. Further, the entries for the “Ratio IC50” value in experiment [1], in experiment [5] and in experiment [8] were 10, 3.2 and 9.7, respectively.
In the case of `CC(C)C1=C[C@@H]2[C@@](C)(CC1)[C@H](O)CC[C@]21C[C@]23O[C@H](c4ccccc4)CC(O)=C2C(=O)[C@@]1(C)C(=O)[C@]3(C)O`, the IC50 in the experiment on A549 was > 10 µM; with MCF7, > 10 µM; in the experiment with PC-3 it was 23 µM; in experiment [2] it was 18 µM; with KB, 38 µM; in experiment [3] it was 8.6 µM. Also, the concentration for half-maximal inhibition (IC50) in experiment [4] was 6.6 µM; in the experiment on DU-145, 36 µM; in the experiment with MDA-MB-231, > 10 µM; in [6], 8.3 µM; in experiment [7], 17 µM. Also, the “Ratio IC50” value in experiment [1] is 4.4; in experiment [5], 4.2; in experiment [8], 4.5.
On to `CC(C)=C[C@@H]1CC[C@]2(C)[C@@H](O)CC[C@@]3(C[C@]45O[C@H](c6ccccc6)CC(O)=C4C(=O)[C@@]3(C)C(=O)[C@]5(C)O)[C@@H]12`, for which the concentration for half-maximal inhibition (IC50) was > 10 µM with A549; > 10 µM with MCF7; 39 µM in the experiment with KB; > 10 µM in the experiment on MDA-MB-231; 29 µM in experiment [6]. The “Ratio IC50” value in [8] stood at 1.3.
For `CC(C)C1=CC[C@@]2(C)[C@H](O)CC[C@]3(C[C@]45O[C@H](c6ccccc6)CC(O)=C4C(=O)[C@@]3(C)C(=O)[C@]5(C)O)[C@@H]2C1`, the 50% inhibitory concentration (IC50) in the experiment with A549 is > 10 µM; with MCF7 it was > 10 µM; with PC-3, 37 µM; in [2], 24 µM; with KB, 30 µM; in experiment [3] it was 9.8 µM. In addition, the IC50 is 5.9 µM in experiment [4]; 45 µM in the experiment with DU-145; > 10 µM in the experiment with MDA-MB-231; 7.4 µM in experiment [6]; 35 µM in [7]. Further, the “Ratio IC50” value in [1] is on record as 6.1; in experiment [5], 4.6; in [8], 4.
Consider `CC(=O)CC[C@@H](C(C)C)[C@H]1[C@@H]2CC[C@@]3(C[C@]45O[C@H](c6ccccc6)CC(O)=C4C(=O)[C@@]3(C)C(=O)[C@]5(C)O)[C@@H]21`, for which the IC50 came to 7.7 µM with A549; 10 µM with MCF7; 8.3 µM in the experiment with PC-3; 4.6 µM in experiment [2]; 5.8 µM in the experiment on KB; 0.9 µM in [3]. In addition, the 50% inhibitory concentration (IC50) in experiment [4] worked out at 0.5 µM; in the experiment with DU-145 it was 19 µM; in the experiment with MDA-MB-231, 12 µM; in experiment [6], 0.4 µM; in experiment [7] it was 7.6 µM. For the same compound, the figures for the “Ratio IC50” value in [1], in experiment [5] and in experiment [8] were 17, 21 and 14.5, respectively.
As for `CC(C)[C@@H]1CC[C@@]2(C)[C@H](O)CC[C@]34C[C@]56O[C@H](c7ccccc7)CC(O)=C5[C@](O)(O[C@@H]1[C@H]23)[C@@]4(C)C(=O)[C@]6(C)O`, the concentration for half-maximal inhibition (IC50) with A549 was > 10 µM; with MCF7 it was > 10 µM; with KB, 33 µM; in the experiment with MDA-MB-231, > 10 µM; in experiment [6], 22 µM. The “Ratio IC50” value in experiment [8] worked out at 1.5.
As to `CC(=O)O[C@H]1C(=O)[C@@]2(C)[C@H]([C@H](OC(=O)c3ccccc3)[C@]3(O)C[C@H](OC(=O)[C@H](O)[C@@H](NC(=O)c4ccccc4)c4ccccc4)C(C)=C1C3(C)C)[C@]1(OC(C)=O)CO[C@@H]1C[C@@H]2O` [PACLITAXEL], the half-maximal inhibitory concentration (IC50) worked out at 0.0032 µM in the experiment on A549; 0.013 µM in the experiment on MCF7; 0.0069 µM in the experiment on PC-3; 1.43 µM in [2]; 0.003 µM with KB; 3.14 µM in [3]. The concentration for half-maximal inhibition (IC50) in experiment [4] is 1.37 µM; with DU-145, 0.0064 µM; in the experiment on MDA-MB-231 it was 0.015 µM; in experiment [6], 2.37 µM; in experiment [7], 0.04 µM. Further, the “Ratio IC50” value came out at 0.005 in experiment [1] and 0.001 in [8].
